# Assay results reported in US6252079A, “Intermediates in the synthesis of camptothecin and related compounds and synthesis thereof” (University of Pittsburgh, priority 1997, dated 2001).
# pIC50: −log10 of the molar value. Like-named read-outs stand apart in the source and are kept apart here.
# Legend:
# colon cancer xenografts = conditions: dose levels that were well tolerated; cited from earlier work
# Topoisomerase I [1] = molecular target: T1, Topoisomerase I (Homo sapiens, UniProt P11387); test: Induction of Topoisomerase I-mediated DNA cleavage; assay type: biochemical; conditions: 22d compared with CPT
# T1 construct: supercoiled DNA relaxation and DNA cleavage assays
# T1 sequence (P11387 2-765): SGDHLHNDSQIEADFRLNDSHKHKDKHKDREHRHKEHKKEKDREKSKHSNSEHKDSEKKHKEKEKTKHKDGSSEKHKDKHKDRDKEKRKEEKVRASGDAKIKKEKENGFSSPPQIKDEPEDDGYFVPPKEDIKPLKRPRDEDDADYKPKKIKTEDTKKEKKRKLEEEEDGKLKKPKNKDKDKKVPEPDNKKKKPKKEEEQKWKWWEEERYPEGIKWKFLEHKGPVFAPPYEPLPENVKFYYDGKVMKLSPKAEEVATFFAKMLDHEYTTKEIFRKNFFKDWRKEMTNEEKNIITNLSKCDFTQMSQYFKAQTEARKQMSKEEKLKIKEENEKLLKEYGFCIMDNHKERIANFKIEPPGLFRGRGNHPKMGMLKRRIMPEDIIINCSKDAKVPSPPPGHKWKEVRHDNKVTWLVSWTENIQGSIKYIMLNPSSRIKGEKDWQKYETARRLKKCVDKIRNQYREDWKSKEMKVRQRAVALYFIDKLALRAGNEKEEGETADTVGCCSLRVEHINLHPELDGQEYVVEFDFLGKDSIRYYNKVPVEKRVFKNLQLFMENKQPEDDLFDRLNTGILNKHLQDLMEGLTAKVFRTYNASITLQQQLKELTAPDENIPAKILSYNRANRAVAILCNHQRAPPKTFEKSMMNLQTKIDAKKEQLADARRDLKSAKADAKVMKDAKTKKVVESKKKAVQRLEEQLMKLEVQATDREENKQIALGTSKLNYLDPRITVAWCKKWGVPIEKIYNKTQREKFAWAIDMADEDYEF
# [2] = tested on: thirteen human xenograft lines, including colon, lung, breast, stomach, ovary, and malignant melanoma; conditions: 20% interlipid formulation, intramuscularly and orally, non-toxic doses; cited from earlier work
# [3] = tested on: HL-60 human promyelocytic leukemic cells; test: Cytotoxicity, HL-60 cells; assay type: cell-based
# Procedure: Cytotoxicity and Topoisomerase I-mediated effect studies of compounds 22d and (20S)-camptothecin were performed at the Laboratory for Bioorganic Chemistry, Memorial Sloan-Kettering Institute Cancer Center, New York with the following results:
# 1. IC50 (HL-60 human promyelocytic leukemic cells, μmol): 0.004 (22d); 0.004 (CPT).
# [4] = tested on: 833 K human teratocarcinoma cells; test: Cytotoxicity, 833 K cells; assay type: cell-based; conditions: read-out: IC50 (833 K human teratocarcinoma cells)
# Procedure: Cytotoxicity and Topoisomerase I-mediated effect studies of compounds 22d and (20S)-camptothecin were performed at the Laboratory for Bioorganic Chemistry, Memorial Sloan-Kettering Institute Cancer Center, New York with the following results: […]
# Topoisomerase I [5] = molecular target: T1, Topoisomerase I; test: Inhibition of Topoisomerase I-mediated relaxation of supercoiled DNA; assay type: biochemical; conditions: 22d compared with CPT
SMILES,efficacy in mice carrying colon cancer xenografts (colon cancer xenografts),potency in the induction of Topoisomerase I-mediated DNA cleavage (Topoisomerase I [1]),effect on growth of human xenograft lines [2],"pIC50 ([3]; HL-60, read-out: IC50 (HL-60 human promyelocytic leukemic cells))",pIC50 ([4]; 833K),potency in the inhibition of Topoisomerase I-mediated relaxation of supercoiled DNA (Topoisomerase I [5]),"pIC50 ([3]; HL-60 cells, cytotoxicity, read-out: IC50 (HL-60 human promyelocytic leukemic cells))","pIC50 ([4]; 833 K cells, cytotoxicity)"
"CCC1(O)C(=O)OCc2c1cc1n(c2=O)Cc2cc3c(N)cccc3nc2-1 (racemic) [Racemic 9-aminocamptothecin, 9-aminocamptothecin]",very effective,–,–,–,–,–,–,–
"CC[C@@]1(O)C(=O)OCc2c1cc1n(c2=O)Cc2cc3ccccc3nc2-1 [CPT, (20S)-camptothecin]",–,Same potency,suppressed growth and induced regression of cancer in thirteen human xenograft lines,8.40,8.26,Same potency,–,–
"CC[C@@]1(O)C(=O)OCc2c1cc1n(c2=O)Cc2c-1nc1ccccc1c2[Si](C)(C)C [Compound 22d, (20S)-7-Trimethylsilylcamptothecin]",–,Same potency,–,–,–,Same potency,8.40,8.36
